# Where “and” joins values, the source holds several entries; their conditions need not be identical. Identical values can stand only once.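 Growth conditions: 96-well plates. Treatment: test compound, 48 hours, 5 concentrations. Analysis: linear interpolation between bracketing concentrations; unreached endpoints set to highest concentration. GI50 marks 50% less growth. TGI denotes the concentration required for complete inhibition of growth.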
# Experiments:
# Assay in all cases: growth of human tumour cells (NCI), 48 h
# CCRF-CEM leukemia = test system: CCRF-CEM leukemia
# HL-60(TB) leukemia = test system: HL-60(TB) leukemia
# KM12 colon = test system: KM12 colon
# M14 melanoma = test system: M14 melanoma
# NCI-H23 lung = test system: NCI-H23 lung
# OVCAR-4 ovarian = test system: OVCAR-4 ovarian
# SF-268 CNS = test system: SF-268 CNS
# NCI/ADR-RES ovarian = test system: NCI/ADR-RES ovarian
# PC-3 prostate = test system: PC-3 prostate
# T-47D breast = test system: T-47D breast
SMILES,TGI (CCRF-CEM leukemia) [µM],TGI (HL-60(TB) leukemia) [µM],TGI (KM12 colon) [µM],TGI (M14 melanoma) [µM],TGI (NCI-H23 lung) [µM],TGI (OVCAR-4 ovarian) [µM],TGI (SF-268 CNS) [µM],TGI (NCI/ADR-RES ovarian),TGI (PC-3 prostate),TGI (T-47D breast),GI50 (M14 melanoma) [µM],GI50 (NCI/ADR-RES ovarian),GI50 (CCRF-CEM leukemia) [µM],GI50 (HL-60(TB) leukemia) [µM],GI50 (NCI-H23 lung) [µM],GI50 (OVCAR-4 ovarian) [µM],GI50 (SF-268 CNS) [µM],GI50 (T-47D breast) [µM]
COC(=O)C(=O)C(C(=O)Nc1cccc(C)c1C)C1Sc2ccccc2NC1=O (stereo not drawn),> 25,> 25,> 25,> 25,> 25,> 25,> 25,–,–,–,–,–,–,–,–,–,–,–
C=CCNC(=S)Nc1sc2c(c1C(=O)OCC)CC(C)CC2 (stereo not drawn),–,14.7,> 100,49.9,> 100,> 100,> 100,> 100 µM,50 µM,66.7 µM,–,–,–,–,–,–,–,–
Cc1ccc(S(=O)(=O)N/N=C/c2oc(-c3cccc([N+](=O)[O-])c3)c(-c3cccc([N+](=O)[O-])c3)c2[N+](=O)[O-])cc1,56.8,57.1,> 100,> 100,> 100,> 100,66.7,–,–,–,–,–,–,–,–,–,–,–
O=C1N[C@H]2c3c(Cl)sc(Cl)c3/C(=N/O)[C@H]2O1,> 100,57.9,> 100,> 100,–,–,> 100,> 100 µM,> 100 µM,> 100 µM,–,–,–,–,–,–,–,–
COC(=O)c1cn(CCCC(=O)O)nn1,> 100,–,> 100,–,> 100,> 100,> 100,> 100 µM,> 100 µM,> 100 µM,–,–,–,–,–,–,–,–
O=C(O)c1ccccc1.[Ag],–,> 42,47.3,36,54.5,29.9,50.1,> 100 µM,29.8 µM,5.28 µM,–,–,–,–,–,–,–,–
COc1ccc(-c2nc(N)c(C#N)c3c2CCS(=O)(=O)c2ccc(C)cc2-3)cc1OC,–,–,52.3,> 100,> 100,> 100,> 100,> 100 µM,> 100 µM,> 100 µM,–,–,–,–,–,–,–,–
Clc1ccc2c(SCC3CO3)c3ccccc3nc2c1 (stereo not drawn),6.98,2.59,–,3.34,> 100,21.1,> 100,7.24 µM,6.86 µM,4.97 µM,–,–,–,–,–,–,–,–
Cc1ccc(C2CC(=O)CC(c3ccc(C)cc3)C23C(=O)NC(=O)NC3=O)cc1 (stereo not drawn),> 100,–,> 100,> 100,> 100,> 100,> 100,> 100 µM,> 100 µM,> 100 µM,–,–,–,–,–,–,–,–
Cc1nc2c(=S)[nH]ncc2[nH]1,> 100,> 100,> 100,> 100,> 100,> 100,–,> 100 µM,> 100 µM,> 100 µM,–,–,–,–,–,–,–,–
O=C(Nc1cccc2ccccc12)Oc1ccccc1C1CCCCC1,53.7,64.2,41.7,32.4,33.7,32.7,98.9,–,–,–,–,–,–,–,–,–,–,–
Nc1nc(N)c2ncn(CC3CCC(CO)C3)c2n1 (stereo not drawn),> 100,–,> 100,> 100,–,> 100,> 100,> 100 µM,> 100 µM,> 100 µM,–,–,–,–,–,–,–,–
O=C(CP(c1ccccc1)c1ccccc1)c1cccc(C(=O)CP(c2ccccc2)c2ccccc2)c1,> 100,42.8,> 100,> 100,–,> 100,> 100,> 100 µM,> 100 µM,94.8 µM,–,–,–,–,–,–,–,–
CCC(C)[C@H](NC(=O)[C@H](Cc1ccccc1)NC(=O)N(CC)c1ccccc1)C(=O)N[C@@H](CC(C)C)C(=O)OC (stereo partly drawn),66.7,–,61.3,> 100,> 100,> 100,> 100,> 100 µM,> 100 µM,> 100 µM,–,–,–,–,–,–,–,–
CCC1(O)CC(OC2CC(N(C)C)C(OC3CC4OC5CC(=O)C(C)OC5OC4C(C)O3)C(C)O2)c2c(cc3c(c2O)C(=O)c2c(O)ccc(O)c2C3=O)C1C(=O)OC (stereo not drawn),–,–,–,–,–,–,–,0.0943 µM and 0.224 µM and 0.171 µM,0.0576 µM and 0.15 µM,0.0172 µM and 0.0152 µM,0.0245,0.00629 µM and 0.0109 µM and < 0.0105 µM,–,–,–,–,–,–
Nc1nc2c(=O)c3ccccc3sc2s1,> 100,> 100,> 100,> 100,> 100,–,> 100,90.5 µM,> 100 µM,> 100 µM,–,–,–,–,–,–,–,–
FC(F)(F)c1ccc(-c2nc(-c3nc4cc(Cl)c(Cl)cc4[nH]3)c3ccccn23)cc1,> 100,> 100,–,–,> 100,5.41,> 100,> 100 µM,–,> 100 µM,–,6.1 µM,> 100,> 100,6.57,1.87,4.19,4.06
CC1(C)O[C@H]2Cn3c(c(C#N)c4ccccc43)[C@H]2O1,–,> 100,> 100,> 100,> 100,> 100,> 100,> 100 µM,–,> 100 µM,–,–,–,–,–,–,–,–
Cc1ccc(S(=O)(=O)c2scc(-c3ccccc3)c2C)cc1,–,> 100,> 100,> 100,> 100,> 100,> 100,> 100 µM,> 100 µM,> 100 µM,–,–,–,–,–,–,–,–
CCC(C)[C@@H](NCc1ccccc1)[C@H](OCc1ccccc1)[C@@H]1COC(C)(C)O1 (stereo partly drawn),60.9,–,44.3,> 100,44.3,> 100,68.6,55.3 µM,> 100 µM,–,–,–,–,–,–,–,–,–
CCOC(=O)CCCn1nnc(C(=O)OCC)c1C(=O)OCC,> 100,–,> 100,–,> 100,> 100,> 100,> 100 µM,> 100 µM,> 100 µM,–,–,–,–,–,–,–,–
O=C1c2ccccc2C(=O)N1n1c(Cc2ccccc2)n[nH]c1=O,> 100,–,> 100,> 100,> 100,> 100,–,> 100 µM,> 100 µM,> 100 µM,–,–,–,–,–,–,–,–
C1CC2=C(C1)[Se]C(=C1Sc3nsnc3S1)[Se]2,> 100,–,> 100,> 100,> 100,> 100,> 100,> 100 µM,> 100 µM,> 100 µM,–,–,–,–,–,–,–,–
CCOC(=O)c1cn(-c2ccccc2)c(=S)n2c1nc1ccccc12,65.3,–,> 100,> 100,> 100,> 100,94.9,> 100 µM,> 90 µM,> 100 µM,–,–,–,–,–,–,–,–
